Source: patent publication US7919260B2, “Screening methods using GPR52” (Takeda Pharmaceutical Company Limited, priority 2005, dated 2011)

Columns and labels:
Format in all cases: cell-based
GPR52 [1] = biological target: T1, GPR52 (Homo sapiens, UniProt Q9Y2T5); experiment: Changes in intracellular calcium levels on FLIPR in CNGC-E583M/HEK293 cells transiently expressing human GPR52; set-up: expressed in transfected cells; host or cells: CNGC-E583M/HEK293 cells (HEK293 stably expressing rat olfactory cyclic nucleotide-gated channel E583M), transient transfection of pAKKO-GPR52; conditions: human GPR52 transiently expressed in CNGC-E583M/HEK293; reserpine 1.0-100 μM (FIG. 1), methoctramine 15-75 μM (FIG. 2); no such response in control cells transfected with other receptor vector
Description: The stable expression cell line (CNGC-E583M/HEK293 cell line) of rat olfactory cyclic nucleotide-gated channel (CNGC-E583M), which was used as a host cell, was obtained by inserting rat olfactory cyclic nucleotide-gated channel (CNGC-E583M) cDNA into expression vector pcDNA3.1(+) neo (Invitrogen) (pcDNA3.1-CNGC), transfecting pcDNA3.1-CNGC into HEK293 cells (purchased from ATCC) in a conventional manner, and incubating the cells in DMEM (Dulbecco's modified Eagle medium) supplemented with 10% fetal calf serum (Invitrogen) and 800 mg/l geneticin (Invitrogen) under 5% CO2 at 37° C. [Fagan et al., FEBS, 500, 85 (2001); Reinescheid et al., European Journal of Pharmacology, 478, 27 (2003)]. The CNGC-E583M/HEK293 cells were incubated in a collagen-coated 75 cm^2 flask. […] First, an assay buffer was prepared to add fluorescence dye Fluo-3AM (DOJIN) to the cells or to wash the cells immediately before the FLIPR assay. […] The mixture was then added to 10.6 ml of the assay buffer supplemented with 105 μl of fetal calf serum, and 20 μl of 500 mM IBMX/DMSO was further added to prepare a fluorescence dye solution. The fluorescence dye solution was dispensed onto the cell plate by 100 μl each/well using an 8-channel pipette and the cells were incubated at 37° C. in a 5% CO2 incubator for an hour (dye loading). […]

[2] = test system: NMDA-type glutamate receptor; experiment: Activation of NMDA-type glutamate receptor in neurons from rat embryonic cerebral cortex (fura-2 intracellular calcium, AQUACOSMOS)
Description: Neurons from rat embryonic cerebral cortex (CAMBREX) were cultured in a 48-well poly-L-lysine (Sumitomo Bakelite) for 14-15 days by a modification of the method attached. A neuron culture medium (Dainippon Pharmaceutical) was used as a medium, unless otherwise indicated. Changes in intracellular calcium levels were assayed using AQUACOSMOS (Hamamatsu Photonics). For assaying the changes in intracellular calcium levels, the following pretreatment was made. First, in order to add fluorescence dye fura-2/AM (Molecular Probes) to cells, an assay buffer used to wash the cells immediately before the assay was prepared. To 1000 ml of HBSS (Invitrogen) supplemented with 20 ml of 1M HEPES (pH7.4) (DOJIN) (hereinafter HBSS/HEPES solution), 10 ml of a solution prepared by dissolving 710 mg of Probenecid (Sigma) in 5 ml of 1N NaOH and further adding 5 ml of the HBSS/HEPES solution thereto was added, and the resulting solution was used as the assay buffer. Next, an equal volume of 20% Pluronic acid (Molecular Device) was added to and mixed with the fura-2/AM stock solution. The mixture was dissolved in the assay buffer in a final concentration of 5 μM fura-2 to prepare the fura-2 fluorescence dye solution. The fura-2 fluorescence dye solution was loaded on neurons from the rat embryonic cerebral cortex, followed by incubation for 30-60 minutes. Thereafter, the changes in calcium levels in the individual neurons were determined using AQUACOSMOS (Hamamatsu Photonics).
Activation of the NMDA-type glutamate receptor in the cerebral cortex was analyzed by the procedures described in EXAMPLE 9.

human GPR52-GFP = biological target: T2, human GPR52-GFP (Homo sapiens, UniProt Q9Y2T5, I167T); experiment: Internalization of GPR52-GFP fusion protein expressed in CHO cells (confocal microscopy); conditions: reserpine 10^-4 M, 30 minutes after addition
T2 construct: expressed in transfected cells; host or cells: CHO cells, vector pAKKO-111H
Text: An expression plasmid was constructed to express a fused protein of Green Fluorescent Protein (GFP) cDNA isolated from jellyfish or Auquorea victoria, fused to GPR52 at the C-terminus to fit the translation frame. In this case, a fragment excised from GFP expression vector pQBI25 (Takara Shuzo) was used as GFP cDNA. In GPR52, its termination codon was modified by PCR to recognition sequence with restriction enzyme NheI, and the GFP fragment was ligated thereto, which was inserted into the expression vector pAKKO-111H [Biochem. Biophys. Acta, 1219, 251 (1994)] and transfected to CHO cells in a conventional manner to obtain the human GPR52-GFP expression CHO cell line. The human GPR52-GFP expression CHO cells were suspended in a growth medium [αMEM (containing nucleic acids: Invitrogen) supplemented with 10% fetal calf serum (GIBCO BRL)] and plated on a Lab-TekII cover glass chamber with 4 chambers (Nalgen Nunc) in a concentration of 0.6×10^5 cells/chamber. […] In this case, GFP was excited at 488 nm.

GPR52 [3] = biological target: T1, GPR52; experiment: Increase of intracellular cAMP levels in human GPR52 expression CHO cell line (cAMP Screen Kit); set-up: expressed in transfected cells; conditions: reserpine in various concentrations, 30 minutes; negative controls Mock CHO and TGR5 CHO cell lines (FIG. 3)
Description: The human GPR52 expression CHO cells obtained in REFERENCE EXAMPLE 1 was washed in the assay medium (HBSS (Gibco BRL) supplemented with 0.2 mM isobutylmethylxanthine), followed by incubation for 30 minutes under conditions at 37° C. in 5% CO2. Then, reserpine diluted in the assay medium was added in various concentrations. The assay buffer alone was used as a Base. After the addition, incubation was conducted for 30 minutes under conditions at 37° C. in 5% CO2. The culture supernatant was discarded and the intracellular cAMP level was assayed on the plate reader (EnVision, Perkin-Elmer) in accordance with the protocol of cAMP Screen Kit (Applied Biosystems). As negative controls, the CHO cell line (Mock) wherein no exogenous receptor was expressed and the CHO cell line (TGR5) wherein Gs-conjugated receptor TGR5 was stably expressed were co-assayed.

GPR52 [4] = biological target: T1, GPR52; experiment: Screening of GPR52 agonists: intracellular cAMP in GPR52 stable expression cells (AlphaScreen cAMP Assay Kit); set-up: expressed in transfected cells; conditions: secondary screening at 100-0.1 μM
Description: The GPR52 stable expression cells prepared in REFERENCE EXAMPLE 1 were incubated in a 150 cm^2 at 37° C. overnight in a CO2 incubator. After the incubation, the cells were detached with 0.5 mM EDTA/PBS, and washed in PBS. The cells were then suspended at a density of 1×10^7 cells/ml in Buffer 1 (HBSS+0.1% BSA, 25 mM HEPES, pH 7.3, 0.5 mM IBMX). This cell suspension, 440 μl, was mixed with 22 μl of Anti-cAMP Acceptor Beads of AlphaScreen cAMP Assay Kit (Perkin Elmer) and 638 μl of Buffer 1. The resulting mixture was dispensed on a white 96-well plate (Costar) by 10 μl each. Next, 10 μl each of the test compound dilutions in Buffer 1 was added to each well. After shaking at room temperature for 30 minutes, 20 μl of Biotinyl cAMP and 82 μl of Streptavidin Donor Beads of AlphaScreen cAMP Assay Kit was added to 40 ml of Buffer 2 (HBSS+0.1% BSA, 25 mM HEPES, pH 7.3, 1.5% Tween 20) and the resulting mixture was added to all wells of the plate by 30 μl each. The plate was kept shaken at room temperature for 3 hours and the fluorescence intensities were measured by Fusion α (Perkin Elmer).
Secondary screening was applied to these compounds in various concentrations (100 μM, 30 μM, 10 μM, 3 μM, 1 μM and 0.1 μM) using the procedures described in EXAMPLE 11 (detailed analysis).

[5] = test system: NMDA-type glutamate receptor; experiment: Phosphorylation (Ser897) of NMDA-type glutamate receptor in rat primary culture neurons (western blot, Anti-phospho-NR1); conditions: 50 μM Compound A; cells recovered 1, 2, 5, 15 and 30 minutes after
Description: Using primary culture neurons from the rat […], phosphorylation of the NMDA-type glutamate receptor by GPR52 agonists was studied. Rat (Wistar, Charles River Japan) embryonic brain (E19) was dissected to isolate the cerebral cortex, and the cells were prepared using Neuron Dispersion Set (Dainippon Pharmaceutical). The cells were plated on a 24-well poly-L-lysine plate (3×10^5 cells/well) and incubated for 2 weeks in Neuro Basal (B27, containing 0.5 mM glutamine, GIBCO) medium. Compound A was added to the above cells at a final concentration of 50 μM, and the cells were recovered 1, 2, 5, 15 and 30 minutes after. After the cells were lysed in Invitrogen's NuPAGE Sample Buffer (containing DTT), western blot analysis was performed using antibody Anti-phospho-NR1 (Ser897) (Upstate).

Structure (SMILES): COc1ccccc1CNCCCCCCNCCCCCCCCNCCCCCCNCc1ccccc1OC [methoctramine]
- intracellular calcium ion levels (GPR52 [1]): increased dose-dependently
- calcium level increase (ratio of Fura-2 fluorescence) on addition after glutamate ([2]; 10 μM glutamate, then 0.2 mM methoctramine during diminution of the calcium increase, n=11 neurons (FIG. 4)): reactivated to induce the calcium level increase
- calcium level increase (ratio of Fura-2 fluorescence), compound alone without glutamate ([2]; 0.2 mM methoctramine alone, glutamate not added beforehand, n=27 neurons (FIG. 5)): any increase in calcium levels was not observed

Structure (SMILES): COC(=O)[C@H]1[C@H]2C[C@@H]3c4[nH]c5cc(OC)ccc5c4CCN3C[C@H]2C[C@@H](OC(=O)c2cc(OC)c(OC)c(OC)c2)[C@@H]1OC [reserpine]
- intracellular calcium ion levels (GPR52 [1]): increased dose-dependently
- internalization of GPR52-GFP fused protein (GFP fluorescence moved from cell membrane to cytoplasm) (human GPR52-GFP): internalization occurred
- intracellular cAMP levels (GPR52 [3]): detected dose-dependently only in the human GPR52 expression CHO cell line

Structure (SMILES): Cc1ncc2c(n1)N(CCCN1CCNCC1)CCC2Nc1cccc(Oc2cccc(Cl)c2)c1.Cl.Cl.Cl.Cl (stereo not shown) [Compound A, N-[3-(3-chlorophenoxy)phenyl]-2-methyl-8-[3-(1-piperazinyl)propyl]-5,6,7,8-tetrahydropyrido[2,3-d]pyrimidine-5-amine tetrahydrochloride]
- EC50 (GPR52 [4]): 2100 nM
- calcium level increase on addition after glutamate ([2]; 10 μM glutamate, then 10 μM Compound A during diminution of the calcium increase): reactivated to induce the calcium level increase
- calcium level increase, compound alone without glutamate ([2]; 15 μM Compound A alone, glutamate not added): any increase in calcium levels was not observed
- phosphorylation (Ser897) of the NMDA-type glutamate receptor [5]: induced phosphorylation (Ser897)
